This note sets out measurements from patent US20250213719A1, “MAGNETIC NANOPARTICLES AND METHODS OF DRUG RELEASE” (University of Notre Dame du Lac, priority 2022, published 2025).

Type in all cases: cell-based
In assay [1] the test system is MDA-MB-231 triple-negative breast cancer cells. The note with it: free or released from Dox-MagSiNs by AC magnetic field. As for the experimental part: (§1) The media in each well of the chamber slides was carefully aspirated, and the wells were rinsed twice with 400 μL of 1×PBS. The cells were incubated with Ethidium-homodimer Ill dye and Calcein-AM dye mix at manufacturer recommended concentrations (Life-technologies), and the slides were incubated for 30 minutes in the cell incubator, in the dark. After incubation, the wells were rinsed twice with 400 μL of 1×PBS. Lastly, 300 μL of 4% buffered parafomaldehyde was added to each well, and the slides were taken to be imaged with a NikonU inverted fluorescent microscope with a 10× lens using a standard FITC/RITC green and red fluorescent filter cubes.
Viable cell populations of treated and untreated control cancer cell lines and treated and untreated normal cell lines were determined at the end of each run using a calcein-AM/propidium iodide assay to determine total cells and viable cell populations. […] When PI does gain access to nucleic acids and intercalates, its fluorescence increases dramatically and is therefore used to identify dead cells. […]
In this study, for each sample set (control group or test group), the total number of cells with green fluorescence and the total number of cells with red fluorescence were counted as separate datasets. […] For each sample set, the percent dead-cells and percent live-cells was calculated. […]

In assay [2] the test system is A2780 ovarian cancer cells. As to the kind of experiment: Live/dead cell viability assay. The note with it: free or released from Dox-MagSiNs by AC magnetic field. As for the experimental part: as §1
(§2) Viable cell populations of treated and untreated control cancer cell lines and treated and untreated normal cell lines were determined at the end of each run using a calcein-AM/propidium iodide assay to determine total cells and viable cell populations. The calcein-AM assay is based on the conversion of the cell permeant non-fluorescent calcein-AM dye to the fluorescent calcein dye by intracellular esterase activity in live cells. […] When PI does gain access to nucleic acids and intercalates, its fluorescence increases dramatically and is therefore used to identify dead cells. Calcein-Am and PI can be used separately or together to assess cellular viability or cell death, respectively.
(§3) In this study, for each sample set (control group or test group), the total number of cells with green fluorescence and the total number of cells with red fluorescence were counted as separate datasets. […] For each sample set, the percent dead-cells and percent live-cells was calculated. The percent live-cells was used as a measure of viability. A paired t-test under the assumption of comparing two-samples with equal variances and a >=0.05 was used to determine the statistical significance of the test-groups in comparison to the control groups.
(§4) A unidirectional magnetic field of 30-50 Gauss and an alternating magnetic field of 100 Hz, 30-50 Gauss were used for these experiments.

For assay [3], the system named is PC-3 prostate cancer cells. Kind of assay: Live/dead cell viability assay. The note with it: 500 nM Dox, free or released from Dox-MagSiNs by AC magnetic field, hydrochloride. On the procedure:
as §1, §2, §3, §4

In assay [4] the test system is HUVEC cells. Kind of assay: Live/dead cell viability assay. The note with it: free or released from Dox-MagSiNs by AC magnetic field, permanent magnet 24 h then AC field 10 h, assay at 48 h. On the procedure:
as §1, §2, §3, §4

Each structure is given as a SMILES string. Values joined by “and” are separate entries in the source; they are usually repeats but may differ in a detail not shown here. Equal entries are not always repeated. Where two headings read alike, the source gives them in different places. Where only a bound is given, the exact number is not on record here.

As for `COc1cccc2c1C(=O)c1c(O)c3c(c(O)c1C2=O)C[C@@](O)(C(=O)CO)C[C@@H]3O[C@H]1C[C@H](N)[C@H](O)[C@H](C)O1.Cl` [Dox·HCl, doxorubicin hydrochloride], the cell death entry in assay [1] (20 nM Dox) is “insignificant cell death”; in assay [1] (500 nM Dox), 4%; in assay [2] (20 nM Dox) it was more than 20%; in assay [2] (500 nM Dox, hydrochloride) it was 83%; in assay [2] (500 nM Dox, listed as Dox, hydrochloride), 83% and 80-85%; in assay [3] it was 100%. Further, the cell death in assay [3] (listed as Dox) was 100% and > 95%; in assay [4] (20 nM Dox·HCl), 100%; in assay [4] (500 nM Dox·HCl) it was 100%.
